These results are taken from PMC2997436 (Journal of medicinal chemistry, 2010).

Like-named read-outs stand apart in the source and are kept apart here.

Assay [1] concerns the target T1, α3β4 nAChR (Rattus norvegicus, UniProt P04757+P12392). The assay is classed as cell-based.
The target of a further assay is rat α4β2 nAChR (Rattus norvegicus, UniProt P09483+P12390). The assay is classed as binding.
The next assay deals with rat α3β4 nAChR (Rattus norvegicus, UniProt P04757+P12392). The assay is classed as binding.
Chain of rat α3β4 nAChR (P04757 26-499): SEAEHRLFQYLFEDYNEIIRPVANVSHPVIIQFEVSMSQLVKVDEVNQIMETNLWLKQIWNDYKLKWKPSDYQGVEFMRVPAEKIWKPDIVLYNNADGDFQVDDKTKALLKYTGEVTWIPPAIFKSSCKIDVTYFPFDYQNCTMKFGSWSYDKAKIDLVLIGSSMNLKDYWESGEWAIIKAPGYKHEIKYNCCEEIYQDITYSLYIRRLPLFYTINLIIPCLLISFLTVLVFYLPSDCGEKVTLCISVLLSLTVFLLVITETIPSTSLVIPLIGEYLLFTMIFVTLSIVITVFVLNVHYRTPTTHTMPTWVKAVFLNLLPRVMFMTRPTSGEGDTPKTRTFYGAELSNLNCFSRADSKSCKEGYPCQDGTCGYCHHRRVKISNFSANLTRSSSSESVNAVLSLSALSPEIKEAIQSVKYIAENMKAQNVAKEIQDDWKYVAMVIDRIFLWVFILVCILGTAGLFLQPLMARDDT
Chain of rat α3β4 nAChR (P12392 22-495 limits assumed): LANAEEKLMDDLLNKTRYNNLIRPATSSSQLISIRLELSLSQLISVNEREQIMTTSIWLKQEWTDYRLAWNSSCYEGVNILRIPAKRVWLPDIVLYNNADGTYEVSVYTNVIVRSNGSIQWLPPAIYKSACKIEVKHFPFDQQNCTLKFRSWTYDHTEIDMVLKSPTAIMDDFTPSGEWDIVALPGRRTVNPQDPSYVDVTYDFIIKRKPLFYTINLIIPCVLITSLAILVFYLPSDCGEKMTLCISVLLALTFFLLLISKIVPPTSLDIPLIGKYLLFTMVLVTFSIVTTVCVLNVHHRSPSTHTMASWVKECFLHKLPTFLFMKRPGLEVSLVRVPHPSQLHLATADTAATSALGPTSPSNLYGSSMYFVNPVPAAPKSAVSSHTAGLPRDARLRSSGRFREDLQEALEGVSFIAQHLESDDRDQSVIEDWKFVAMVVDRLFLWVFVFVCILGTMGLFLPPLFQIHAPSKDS
In the next assay the target is α7 nAChR (Rattus norvegicus, UniProt Q05941). The assay is described as follows: biochemical. It counts as binding.
Chain of α7 nAChR (Q05941 23-502): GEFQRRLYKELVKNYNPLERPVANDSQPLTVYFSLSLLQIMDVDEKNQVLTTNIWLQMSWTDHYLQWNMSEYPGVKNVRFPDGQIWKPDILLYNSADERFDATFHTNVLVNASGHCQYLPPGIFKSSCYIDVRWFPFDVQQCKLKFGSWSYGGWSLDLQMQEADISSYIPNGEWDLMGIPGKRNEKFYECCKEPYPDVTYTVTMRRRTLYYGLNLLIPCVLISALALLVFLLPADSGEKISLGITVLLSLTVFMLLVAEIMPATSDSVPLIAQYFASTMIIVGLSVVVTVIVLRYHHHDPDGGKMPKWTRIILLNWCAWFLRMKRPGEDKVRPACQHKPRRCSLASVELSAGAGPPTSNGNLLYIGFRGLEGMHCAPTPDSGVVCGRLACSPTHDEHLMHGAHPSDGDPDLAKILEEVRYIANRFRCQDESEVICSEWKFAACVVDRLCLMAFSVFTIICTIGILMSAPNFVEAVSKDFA
The next assay concerns the target α4β2 nAChR (Rattus norvegicus, UniProt P09483+P12390). The assay is described as follows: Functional assay. The assay is classed as cell-based.
Assay [2] has as its target T1, α3β4 nAChR. Particulars: change in both Kd and Bmax of [3H]epibatidine.
Setting [3] is: FLIPR, alone and against epibatidine-induced Ca2+ fluorescence.

Chain of rat α4β2 nAChR (P09483 31-630): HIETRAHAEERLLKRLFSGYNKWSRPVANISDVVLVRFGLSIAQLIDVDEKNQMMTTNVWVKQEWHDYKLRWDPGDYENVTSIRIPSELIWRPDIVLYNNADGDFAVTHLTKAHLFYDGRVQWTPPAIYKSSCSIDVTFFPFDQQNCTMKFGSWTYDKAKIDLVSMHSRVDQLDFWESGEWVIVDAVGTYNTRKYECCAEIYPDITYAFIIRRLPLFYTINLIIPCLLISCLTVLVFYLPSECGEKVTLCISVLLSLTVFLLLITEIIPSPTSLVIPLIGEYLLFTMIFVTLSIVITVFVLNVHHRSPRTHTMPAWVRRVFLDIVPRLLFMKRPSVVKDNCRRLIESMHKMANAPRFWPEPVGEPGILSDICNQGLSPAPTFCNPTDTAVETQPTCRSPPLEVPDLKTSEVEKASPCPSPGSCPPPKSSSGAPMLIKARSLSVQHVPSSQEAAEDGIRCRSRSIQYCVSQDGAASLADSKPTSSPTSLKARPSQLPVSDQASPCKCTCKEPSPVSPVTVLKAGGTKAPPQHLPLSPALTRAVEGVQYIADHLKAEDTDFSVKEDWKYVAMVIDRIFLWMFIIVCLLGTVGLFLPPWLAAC
Chain of rat α4β2 nAChR (P12390 25-500): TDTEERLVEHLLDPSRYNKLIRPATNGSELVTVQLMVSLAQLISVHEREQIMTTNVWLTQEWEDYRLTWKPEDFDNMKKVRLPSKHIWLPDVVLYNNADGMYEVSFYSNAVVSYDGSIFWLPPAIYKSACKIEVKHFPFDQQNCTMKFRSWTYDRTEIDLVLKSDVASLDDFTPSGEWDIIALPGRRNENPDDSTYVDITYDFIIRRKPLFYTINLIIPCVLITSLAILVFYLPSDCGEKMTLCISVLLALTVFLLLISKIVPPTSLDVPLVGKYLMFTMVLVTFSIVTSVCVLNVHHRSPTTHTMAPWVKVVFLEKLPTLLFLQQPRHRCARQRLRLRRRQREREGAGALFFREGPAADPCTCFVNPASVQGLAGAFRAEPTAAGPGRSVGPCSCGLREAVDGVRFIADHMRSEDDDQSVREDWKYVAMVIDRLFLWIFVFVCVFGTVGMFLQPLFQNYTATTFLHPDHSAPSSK
T1 sequence (P12392 22-495): as the sequence (P12392 22-495 limits assumed) above
T1 sequence (P04757 26-499): as the sequence (P04757 26-499) above
Chain of α4β2 nAChR (P09483 31-630): as the sequence (P09483 31-630) above
Chain of α4β2 nAChR (P12390 25-500): as the sequence (P12390 25-500) above

For `O=C1Cc2ccccc2N1C1CC2CCCC(C1)N2` (stereo not drawn) [Compound 6], the “functional activity at α3β4 nAChR (in words)” value on α3β4 nAChR [1] (setting [3]) is “antagonists”. On α3β4 nAChR [1] (FLIPR, α3β4 HEK cells), the “potency in reversing epibatidine-induced Ca2+ fluorescence” value is “micromolar range”.
Regarding `CCOC(=O)N1C2C=C(c3cccnc3)CC1CCC2` (stereo not drawn) [Compound 7], on rat α4β2 nAChR, the “binding affinity at α4β2 nAChR (in words)” value is given as “complete loss of binding affinity”. Further, at rat α3β4 nAChR, the “binding affinity at α3β4 nAChR (in words)” value is on record as “complete loss of binding affinity”.
Consider `CN1C2C=C(c3cccnc3)CC1CCC2` (stereo not drawn) [Compound 8, 9-methyl-3-(pyridin-3-yl)-9-azabicyclo[3.3.1]non-2-ene], for which the “functional activity at α3β4 nAChR (in words)” value at α3β4 nAChR [1] (setting [3]) was “partial agonist activity”.
Turning to `C1=C(c2cccnc2)CC2CC1CN2Cc1ccccc1` (stereo not drawn) [Compound 10, 6-benzyl-3-(pyridin-3-yl)-6-azabicyclo[3.2.1]oct-2-ene], the “selectivity for α4β2 over α3β4 receptors” value at rat α4β2 nAChR is given as “about 100 fold”. In addition, the “selectivity for α4β2 over α7 nAChR” value on rat α4β2 nAChR is “greater than 200 fold”. Moreover, the values for the Ki on rat α4β2 nAChR (binding affinity (Ki) α4β2), on α7 nAChR and at rat α3β4 nAChR were 1.95 ± 0.18 nM, 424 nM and 170 ± 47.9 nM, respectively. The “functional activity at α4β2 nAChR (in words)” value on α4β2 nAChR is on record as “partial agonist”. Besides, on α3β4 nAChR [1], the “functional activity at α3β4 nAChR (in words)” value is “partial agonist”.
In the case of `O=C1Cc2ccccc2N1C1CC2CC(C1)N(Cc1ccccc1)C2` (stereo not drawn) [Compound 12], the “binding affinity at α4β2 nAChR (in words)” value on rat α4β2 nAChR is “completely abolished affinity”.
For `O=c1cccc2n1C[C@@H]1CNC[C@H]2C1` [Cytisine], the “mode of binding with epibatidine at α3β4” value at α3β4 nAChR [2] is listed as “noncompetitively”.
Take `Clc1ccc(C2CC3CCC2N3)cn1` (stereo not drawn) [Epibatidine, reference compound]: the “increase in intracellular Ca2+-induced fluorescence” value at α3β4 nAChR [1] was found to be 1000 fold.

Usually Ki stands for a dissociation constant, usually derived from enzyme kinetics or from competition with a known ligand.
